Test results taken from patent US11453671B2, “Pyrazolopyrimidine inhibitors of JAK kinases and uses thereof” (Genentech, Inc., priority 2020, dated 2022).

Columns and labels:
Format in all cases: cell-based
A549 cells = experiment: Cell cytotoxicity assay A549 (CellTiter-Glo, 72 hours); details: Table 3; 72 hours, top concentration of 50 μM; read-out: Cytotox A549 EC50
How it was run: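 A549 cells were plated overnight, then exposed for 72 h at 37 °C to a 10-point compound titration (top 50 μM, 0.5% DMSO final). Viability was read as CellTiter-Glo luminescence after 20 min at room temperature.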

Jurkat clone E6-1 cells = experiment: Cell cytotoxicity assay Jurkat (CellTiter-Glo, 72 hours); details: Table 3; 72 hours, top concentration of 50 μM; read-out: Cytotox Jurkat EC50
How it was run: (§1)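 HEK-293T or Jurkat E6-1 cells plated at 450 cells/well were treated the next day with a 10-point titration from 50 μM top (0.5% DMSO final). After 72 h at 37° C, viability was read by CellTiter-Glo luminescence.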

HEK-293T cells = experiment: Cell cytotoxicity assay HEK-293T (CellTiter-Glo, 72 hours); details: Table 3; 72 hours, top concentration of 50 μM; read-out: Cytotox K-293 EC50
How it was run: as §1

CC(CO)S(=O)(=O)c1ccc(OC(F)F)c(-c2nn(C)cc2NC(=O)c2cnn3cccnc23)c1 (single isomer, unassigned) [Example 24, N-[3-[2-(difluoromethoxy)-5-(2-hydroxy-1-methyl-ethyl)sulfonyl-phenyl]-1-methyl-pyrazol-4-yl]pyrazolo[1,5-a]pyrimidine-3-carboxamide]
EC50 (A549 cells): ≥ 50 µM
EC50 (Jurkat clone E6-1 cells): 37 µM
EC50 (HEK-293T cells): 22 µM
